Measurements from BindingDB's records for doi:10.1016/j.bmcl.2008.12.050 (Merck Research Laboratories, 2009).
Counter-ions that a name gives are not always drawn.

experiment: Antagonist activity at human CCR2 receptor expressed in CHO cells by chemotaxis assay

IC50 [nM]	SMILES
1	CC(C)[C@]1(C(=O)NCc2cc(C(F)(F)F)cc(C(F)(F)F)c2)CC[C@@H](NC2CCOCC2C(F)(F)F)C1 (stereo partly drawn) [(1S,3R)-N-(3,5-bis(trifluoromethyl)benzyl)-1-isopropyl-3-(3-(trifluoromethyl)tetrahydro-2H-pyran-4-ylamino)cyclopentanecarboxamide]
0.1	CC1COCCC1N[C@@H]1CC[C@@](C(=O)NCc2cc(C(F)(F)F)cc(C(F)(F)F)c2)(C(C)C)C1 (stereo partly drawn) [(1S,3R)-N-(3,5-bis(trifluoromethyl)benzyl)-1-isopropyl-3-(3-methyltetrahydro-2H-pyran-4-ylamino)cyclopentanecarboxamide]
5.1	CCCC1COCCC1N[C@@H]1CC[C@@](C(=O)NCc2cc(C(F)(F)F)cc(C(F)(F)F)c2)(C(C)C)C1 (stereo partly drawn) [(1S,3R)-N-(3,5-bis(trifluoromethyl)benzyl)-1-isopropyl-3-(3-propyltetrahydro-2H-pyran-4-ylamino)cyclopentanecarboxamide]
3.3	CC(C)[C@]1(C(=O)NCc2cc(C(F)(F)F)cc(C(F)(F)F)c2)CC[C@@H](NC2COC2)C1 [(1S,3R)-N-(3,5-bis(trifluoromethyl)benzyl)-1-isopropyl-3-(oxetan-3-ylamino)cyclopentanecarboxamide trifluoroacetate]
0.3	CCC1COCCC1N[C@@H]1CC[C@@](C(=O)NCc2cc(C(F)(F)F)cc(C(F)(F)F)c2)(C(C)C)C1 (stereo partly drawn) [(1S,3R)-N-(3,5-bis(trifluoromethyl)benzyl)-3-(3-ethyltetrahydro-2H-pyran-4-ylamino)-1-isopropylcyclopentanecarboxamide]
0.8	CC(C)[C@]1(C(=O)NCc2cc(C(F)(F)F)cc(C(F)(F)F)c2)CC[C@@H](NC2CCOCC2F)C1 (stereo partly drawn) [(1S,3R)-N-(3,5-bis(trifluoromethyl)benzyl)-3-(3-fluorotetrahydro-2H-pyran-4-ylamino)-1-isopropylcyclo pentanecarboxamide]
